The source of these data is EP0446604A2, “Pyridine and related aza heterocycle derivatives as cardiovascular agents” (AMERICAN CYANAMID COMPANY, priority 1990, dated 1991).

In assay [1] the test system is spontaneously hypertensive rats of the Okamoto strain. Description: Hypotensive activity in spontaneously hypertensive rats (method of Chan and Poorvin). In kind it is in vivo. As to conditions: by gavage, 100 mg/kg or less, second identical dose 24 hours later; MABP measured 28 hours after initial dose; average MABP of the rats used 160±1.5 mm of mercury. Here is the method: The novel compounds of the present invention are active hypotensive agents and were tested for hypotensive activity by the method of P.S. Chan and D. Poorvin, Clinical and Experimental Hypertension, 1 (6), 817-830 (1979). Male, 16 week old, spontaneously hypertensive rats of the Okamoto strain, from Taconic Farms, Germantown, New York, having an average mean arterial blood pressure of 160±1.5 mm of mercury, were used in the test. One to four rats were used per test compound. A rat is dosed by gavage with a test compound suspended in 2% pre-boiled starch at a concentration of 50 mg/ml, at a dose of 100 mg/kg of body weight or less, with 0.9% sodium chloride loading at a dose of 25 ml/kg of body weight. A second identical dose of the test compound, without sodium chloride loading is given 24 hours later. At 28 hours after the initial dose the mean arterial blood pressure (MABP) is measured. The procedure is repeated in a second and third rat when necessary. The results of this test on representative compounds of the present invention appear below in Table II.

Assay [2] relates to Male mice of the Swiss Webster Strain. Description: Potassium chloride-induced arrhythmia in anesthetized mice (survival). Format: in vivo. As to conditions: Mus musculus, iv, Dose = 10 mg/kg i.v.; potassium chloride 62.5 mg/kg i.v. bolus 5, 15 or 30 minutes after drug; observed 15 minutes; read-out: KCl #Mice Surviving #Mice Tested (converted). An excerpt:
(§1) Intravenous administration of high doses of calcium or potassium chloride in animals produces cardiac arrhythmias, cardiac fibrillation and cardiac arrest. Any agent that can prevent these events is considered an antiarrhythmic/antifibrillatory agent. (Meth. and Find Exptl. Clin Pharmacol.2:223-252(1980); Pharmacol, Ther. 24:401-433 (1984); Experimental Cardiac and Antiarrhythmic Drugs, L. Szekeres and Gy. J. Dapp, Akademiai Kiado Preso, Budapest, 9-448 (1971).)
(§2) The method employed is as follows: Male mice of the Swiss Webster Strain (Charles River, Wilmington, MA) weighing 25-35 g are anesthetized with ethyl carbamate (urethan) (1.5g/kg body weight i.p.). A 25-gauge needle attached to PE-20 tubing is inserted into a caudal vein for drug administration. The lead II ECG is recorded by needle electrodes placed subcutaneously in the limbs. All data is collected on a Gould Brush recorder. Animals are observed 5 minutes before drug administration. A 5, 15, or 30 minute period following drug administration is allowed before the bolus injection of calcium chloride, 200 mg/kg i.v. or potassium chloride, 62.5 mg/kg i.v. Control mice receive 4 ml/kg of 0.9% sodium chloride i.v. Mice are observed an additional 15 minutes for arrhythmias, fibrillation, survival or death. Any compound at a dose of less than 20 mg/kg i.v. that protects 3 out of 6 mice from cardiac death in either the potassium or calcium chloride test, is considered active.

Assay [3] shares this test system. Nature of the assay: Calcium chloride-induced arrhythmia in anesthetized mice (survival). In kind it is in vivo. As to conditions: Mus musculus, iv, Dose = 10 mg/kg i.v.; calcium chloride 200 mg/kg i.v. bolus 5, 15 or 30 minutes after drug; observed 15 minutes; read-out: CaCl2 #Mice Surviving #Mice Tested (converted).
Source text: as §1, §2

For assay [4], the target named is T1, thromboxane synthetase enzyme (Rattus norvegicus, UniProt P49430).
T1 construct: from tissue; host or cells: washed blood platelets from Okamoto-Aoki spontaneously hypertensive rats (SHR)
T1 sequence (P49430 1-533): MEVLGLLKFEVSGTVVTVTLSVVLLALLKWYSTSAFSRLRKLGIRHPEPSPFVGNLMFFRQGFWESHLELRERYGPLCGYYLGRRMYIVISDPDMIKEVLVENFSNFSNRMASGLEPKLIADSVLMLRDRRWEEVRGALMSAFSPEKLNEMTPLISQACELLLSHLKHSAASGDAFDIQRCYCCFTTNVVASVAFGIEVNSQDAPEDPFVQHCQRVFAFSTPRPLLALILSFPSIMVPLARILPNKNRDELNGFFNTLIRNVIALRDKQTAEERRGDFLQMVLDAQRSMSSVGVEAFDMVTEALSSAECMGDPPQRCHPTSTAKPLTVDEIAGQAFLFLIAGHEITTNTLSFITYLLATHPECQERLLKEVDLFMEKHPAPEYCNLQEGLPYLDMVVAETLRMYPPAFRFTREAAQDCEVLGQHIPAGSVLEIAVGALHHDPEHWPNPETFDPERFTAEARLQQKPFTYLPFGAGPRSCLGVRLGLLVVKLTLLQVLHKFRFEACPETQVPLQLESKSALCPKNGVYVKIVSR
Nature of the assay: Inhibition of thromboxane (TXB2) formation in washed rat platelets, TXB2 radioimmunoassay. In kind it is biochemical, Okamoto-Aoki spontaneously hypertensive rats (SHR). As to conditions: Concentration 1x10^-4M, platelet suspension incubated 10 minutes at 37 °C. Here is the method:
Under urethan anesthesia, […] of arterial blood from Okamoto-Aoki spontaneously hypertensive rats (SHR) (Taconic Farms, Germantown, NY) between 19 and 24 weeks in age is collected in one ml of 3.2% sodium citrate in a polystyrene tube. The blood is diluted with 3 ml of cold saline and centrifuged at room temperature for 15 minutes at 460xg. The platelet rich plasma (PRP) is separated. The platelets are isolated by centrifuging the PRP for 10 minutes at 1060xg and are washed in 4 ml of cold oxygenated Krebs phosphate buffer, pH 7.4. The chilled platelets, recovered from centrifuging at 800xg for 10 minutes, are resuspended in oxygenated Krebs phosphate buffer and diluted to contain 4.5-6.0 x 10⁴ platelets/µ1. The inhibition of thromboxane (TX) formation is studied by determining the concentration of thromboxane B₂ (TXB₂), the stable hydrolysis product of TXA₂. Assay samples, prepared on ice, contain 200 µ1 platelet suspension, 50 µ1 saline, and 50 µ1 vehicle (saline) or drug under study. The samples are incubated for 10 minutes at 37 °C in a metabolic shaker. The reaction is terminated by immersing the tubes in an ice bath and adding 50 µl of 0.5M citric acid. The samples are centrifuged for 10 minutes in a refrigerated centrifuge and the supernatants thus obtained are decanted and stored at -20 °C. The TXB₂ content for each sample is determined by a direct radioimmunoassay (RIA) utilizing a TXB₂ specific RIA kit purchased from New England Nuclear, Boston, MA and expressed as pg TXB₂ formed per minute per sample, from which the percent inhibition of TXB₂ formation is calculated.

The inhibition is the relative decrease from the control value, in per cent. Low values mean a response near the control, high ones a response far below the control. On to `Cc1cc(NCC(C)Cn2ccnc2)nc2ccccc12` (stereo not shown) [Example 88, N-[3-(1H-Imidazol-1-yl)-2-methylpropyl]-4-methyl-2-quinolinamine], for which the “Avg. MABP in mm Hg (No. of Rats)” value in assay [1] is 96 (2) mm Hg. For the same molecule, the results for the responders at 10 mg/kg in assay [2] and in assay [3] were 83.3% and 16.7%, respectively. Further, 100 µM produced 98% inhibition in assay [4].

Regarding `Cc1nc(NCCCn2ccnc2)ccc1C#N` [Example 30, 6-[[3-(1H-Imidazol-1-yl)propyl]amino]-2-methyl-3-pyridinecarbonitrile], the “Avg. MABP in mm Hg (No. of Rats)” value in assay [1] is listed as 61 (2) mm Hg. Further, the responders at 10 mg/kg in assay [2] was 100%; in assay [3] it was 16.7%. Further, the inhibition at 100 µM in assay [4] was 94%.

Regarding `c1ccc2c(c1)nc(NCCCn1ccnc1)c1ccccc12` [Example 8, N-[3-(1H-Imidazol-1-yl)propyl]-6-phenanthridinamine], in assay [1], the “Avg. MABP in mm Hg (No. of Rats)” value is 103 (2) mm Hg. Moreover, the responders at 10 mg/kg is 100% in assay [2] and 33.3% in assay [3]. The inhibition at 100 µM in assay [4] was determined as 100%.

For `c1ccc2nc(NCCCn3ccnc3)ccc2c1` [Example 5, N-[3-(1H-Imidazol-1-yl)propyl]-2-quinolinamine], the “Avg. MABP in mm Hg (No. of Rats)” value in assay [1] was 97 (2) mm Hg. The responders at 10 mg/kg in assay [2] is 50%; in assay [3], 83.3%. The molecule further returned an inhibition at 100 µM in assay [4] of 93%.

As to `Cc1cc(NCCCn2ccnc2)nc2c(C)cccc12` [Example 32, N-[3-(1H-Imidazol-1-yl)propyl]-4,8-dimethyl-2-quinolinamine], in assay [1], the “Avg. MABP in mm Hg (No. of Rats)” value is listed as 96 (2) mm Hg. Moreover, the responders at 10 mg/kg in assay [2] was 50%; in assay [3] it was 0%. Further, the inhibition at 100 µM in assay [4] is 98%.

Consider `O=[N+]([O-])c1cccnc1NCCCn1ccnc1` [Example 2, N-[3-(1H-Imidazol-1-yl)propyl]-3-nitro-2-pyridinamine], for which the “Avg. MABP in mm Hg (No. of Rats)” value in assay [1] was 98 (2) mm Hg. Also, the responders at 10 mg/kg was 66.7% in assay [2] and 50% in assay [3]. In addition, testing at 100 µM in assay [4] gave an inhibition of 80%.

With `CC(CNc1nc2ccccc2c2ccccc12)Cn1ccnc1` (stereo not shown) [Example 86, N-[3-(1H-Imidazol-1-yl)-2-methylpropyl]-6-phenanthridinamine], in assay [1], the “Avg. MABP in mm Hg (No. of Rats)” value is 114 (2) mm Hg. Further, the responders at 10 mg/kg was 50% in assay [2] and 16.7% in assay [3]. The molecule also registered an inhibition at 100 µM in assay [4] of 100%.
